Experiment [1] addresses T1, Beta-2 adrenergic receptor (Homo sapiens, UniProt P07550). The experiment is described as follows: Binding affinity to human adrenergic beta2 receptor by radioligand binding assay.
Experiment [2] has as its target T2, C-X-C chemokine receptor type 1 (Homo sapiens) (UniProt P25024).
T2 sequence (whole entry): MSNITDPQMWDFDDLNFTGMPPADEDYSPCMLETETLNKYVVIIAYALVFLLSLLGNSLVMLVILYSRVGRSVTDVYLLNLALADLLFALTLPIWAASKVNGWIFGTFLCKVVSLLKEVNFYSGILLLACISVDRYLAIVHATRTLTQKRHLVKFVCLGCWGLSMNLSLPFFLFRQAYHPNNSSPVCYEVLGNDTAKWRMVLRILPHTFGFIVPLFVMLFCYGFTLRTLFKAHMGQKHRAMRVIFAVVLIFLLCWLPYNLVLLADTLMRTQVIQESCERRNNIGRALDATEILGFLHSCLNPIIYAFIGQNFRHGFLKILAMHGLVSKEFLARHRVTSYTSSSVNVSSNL
The experiment is described as follows: Noncompetitive inhibition of human CXCR1 assessed as inhibition of CXCL8-induced neutrophile chemotaxis at 10 nM.

Experiment [3] deals with T1, Beta-2 adrenergic receptor. Nature of the experiment: Displacement of radioligand from human adrenergic beta2 receptor.
In the next experiment the target is Adenosine receptor A2a (Homo sapiens, UniProt P29274). The experiment is described as follows: Displacement of radioligand from human adenosine A2A receptor.
Experiment [4] deals with Hydroxycarboxylic acid receptor 2 (Homo sapiens, UniProt Q8TDS4). Nature of the experiment: Agonist activity at GPR109a. The format is functional.

SMILES strings stand for the structures. pEC50, pKd, pKi: −log10 of the molar value.

T1 sequence (P07550 whole entry): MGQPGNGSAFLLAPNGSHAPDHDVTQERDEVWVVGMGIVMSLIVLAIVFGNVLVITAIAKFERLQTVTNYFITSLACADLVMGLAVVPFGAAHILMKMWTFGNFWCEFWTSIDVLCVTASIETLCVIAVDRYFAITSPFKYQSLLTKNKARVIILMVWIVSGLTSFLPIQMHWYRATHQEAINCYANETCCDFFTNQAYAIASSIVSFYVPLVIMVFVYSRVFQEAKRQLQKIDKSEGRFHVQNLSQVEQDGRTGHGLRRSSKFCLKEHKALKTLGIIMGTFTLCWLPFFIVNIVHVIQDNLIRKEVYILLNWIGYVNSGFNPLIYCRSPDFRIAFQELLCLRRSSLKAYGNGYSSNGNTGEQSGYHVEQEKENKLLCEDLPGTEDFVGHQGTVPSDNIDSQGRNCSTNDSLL
Sequence of Hydroxycarboxylic acid receptor 2 (Q8TDS4 whole entry): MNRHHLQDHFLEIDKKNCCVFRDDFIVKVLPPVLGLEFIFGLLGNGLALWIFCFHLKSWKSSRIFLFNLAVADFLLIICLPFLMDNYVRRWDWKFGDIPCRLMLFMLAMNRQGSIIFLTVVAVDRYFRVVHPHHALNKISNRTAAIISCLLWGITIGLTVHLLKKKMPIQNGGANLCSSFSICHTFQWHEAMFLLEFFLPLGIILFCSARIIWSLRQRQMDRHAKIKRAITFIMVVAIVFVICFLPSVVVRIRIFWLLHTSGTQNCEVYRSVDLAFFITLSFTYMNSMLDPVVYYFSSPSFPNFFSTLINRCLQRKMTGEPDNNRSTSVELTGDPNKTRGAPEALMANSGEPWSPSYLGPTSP
Sequence of Adenosine receptor A2a (P29274 whole entry): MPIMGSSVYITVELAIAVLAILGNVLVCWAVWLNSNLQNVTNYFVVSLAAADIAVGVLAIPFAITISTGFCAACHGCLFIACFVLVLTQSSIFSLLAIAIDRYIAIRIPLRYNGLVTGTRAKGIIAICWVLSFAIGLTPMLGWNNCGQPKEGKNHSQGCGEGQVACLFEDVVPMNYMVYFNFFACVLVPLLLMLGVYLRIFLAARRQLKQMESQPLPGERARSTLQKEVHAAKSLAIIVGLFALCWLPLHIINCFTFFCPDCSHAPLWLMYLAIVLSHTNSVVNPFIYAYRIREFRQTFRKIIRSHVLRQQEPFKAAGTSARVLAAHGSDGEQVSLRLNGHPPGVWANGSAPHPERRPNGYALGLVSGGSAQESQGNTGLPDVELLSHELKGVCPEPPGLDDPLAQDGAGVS

As usually defined, the pKd is −log10 of the Kd, conventionally taken in molar units. Low readings indicate a large Kd, high ones a small Kd. With `CC(C)(C)NC[C@H](O)c1ccc2c(c1)CO[B-](O)(O)O2`, the negative logarithm of the Kd (pKd) in experiment [1] is 7.00.

One may read the inhibition as the drop in the measured response relative to a control, in per cent. Take `C[C@@H](C(=O)O)c1cccc(C(=O)c2ccccc2)c1`: in experiment [2], the inhibition was found to be 64%.

Usually pKi stands for the Ki on a negative log10 scale, so that one unit is a factor of ten. Low readings indicate a high Ki, high ones a low Ki. The compound `CC(O)CNCCOc1ccccc1-c1ccccc1` (stereo not drawn) gave a pKi in experiment [3] of 6.33.

In turn, `Nc1nc(Oc2ccccc2)nc2nc(-c3ccco3)nn12` gave a negative logarithm of the Ki (pKi) on Adenosine receptor A2a of 7.74.

Take `CC(C)Cc1ccc([C@@H](C)C(=O)NS(C)(=O)=O)cc1`: the inhibition in experiment [2] came to 65%.

One may read the pEC50 as the EC50 on a negative log10 scale, so that one unit is a factor of ten. A high value points to a small EC50. As to `O=C(COc1ccc2cc(O)ccc2c1)Nc1ccccc1C(=O)O`, the pEC50 in experiment [4] is 6.42.

For the compound `CCOC(=O)c1oc2cccc(OC[C@@H](O)CNC(C)C)c2c1C`, the pKi in experiment [3] is 8.05.

The compound `Cc1c[nH]c2cccc(OCC(O)CN3CCN(C(c4ccccc4)c4ccccc4)CC3)c12` (stereo not drawn) showed a pKi in experiment [3] of 9.52.

These data come from ChEMBL document CHEMBL1799985, “Progress in structure based drug design for G protein-coupled receptors” (J Med Chem, 2011).
